Here are results for one compound from patent US9896423B2, “Deuterium substituted 1-[2-(2,4-dimethyl-phenylsulfanyl)-phenyl]piperazine compound or derivatives thereof, and pharmaceutical composition and use thereof” (Jiangsu Jibeier Pharmaceutical Co. Ltd., priority 2014, dated 2018).

The structures appear in SMILES notation. Structures can show the parent of a compound that is named as a salt.

For assay [1], the system named is Male ICR mice. The experiment in a line: Mice tail suspension test. It is filed as in vivo. From the text: (§1) The following method is used for testing the antidepression effect of the compound of the present application. ICR mice or SD rats, gavaged for two successive weeks, were subjected to mice swimming test, mice tail suspension test and rats swimming test. See below for details of the tests and results.
The animals, medicaments, calculation of dosages to the mice, preparation of drug solution and apparatus are the same as those in the mice swimming test.
The medicaments were correspondingly administered by gavage, once a day, to the animals in the groups for 14 successive days, with the amount of 0.2 ml per 10 g of body weight. The mice were subjected to tail suspension one hour later after the last oral administration. The suspension continued for 6 min.
The data was given as “average±standard deviation” (x±s). One-way analysis of variance (ANOVA) was used for data difference statistics. Differences among the groups were determined by P<0.05.

Assay [2] has as its system Male ICR mice. Nature of the assay: Mice swimming test. Type of assay: in vivo.
Text: as §1
Male ICR mice weighing 18 g to 20 g were used. They were fed on sterilized standard feed.
The compound administered in the test was 1-{2-[2,4-bis(trideuteriomethyl)phenylsulfanyl]phenyl}piperazine hydrobromic acid salt (XX for short). Vortioxetine (YY for short) was used as a control sample. Venlafaxine HCl (from Wyeth, USA) was used as a positive control.
Vortioxetine (15 mg) was combined with 10% hydroxypropyl-β-cyclodextrin to form a solution of 100 mL and was administered at daily dose of 3 mg/kg. 1-{2-[2,4-bis(trideuteriomethyl)phenylsulfanyl]phenyl}piperazine hydrobromic acid salt (15 mg and 7.5 mg) was combined with 10% hydroxypropyl-β-cyclodextrin to form two solutions of 100 mL and was administered at daily doses of 3 mg/kg and 1.5 mg/kg, respectively. Venlafaxine HCl (75 mg) was combined with 0.5% CMC-Na to form a solution of 100 mL and was administered at daily dose of […].
A recording and analysis system for small-animal behavior (Noldus) was used.
All the eighty mice were subjected to prescreening one day before the administration. The mice, fasted for 4 hours were put in a round glass tank (ø 14 cm×h 20 cm, with water of 10 cm depth and at a temperature of 25° C.) to swim. […] The whole swimming course was recorded by the video and the data were collected and analyzed automatically by Noldus software.
The forty qualified mice were divided into 4 groups, each of which had 10 mice, according to the Excel random grouping.
The medicaments were administered to each group by gavage with the amount of 0.2 ml per 10 g of body weight, once a day for 14 successive days. One hour later after the last oral administration, the mice were allowed to swim for 6 min. The video recorded the whole swimming course, and the Noldus software automatically collected and analyzed the data.
The data was given as “average±standard deviation” (x±s). One-way analysis of variance (one-way ANOVA) was used for data difference statistics. Differences among the groups were determined by P<0.05.

Where [3] appears, read: 30 mg/kg gavage, two successive weeks.

As to `COc1ccc(C(CN(C)C)C2(O)CCCCC2)cc1` (stereo not shown) [Venlafaxine, Venlafaxine HCl, reference compound], in the assay on Male ICR mice [1] (setting [3]), the “effect on length of time that the tail-suspended mice stopped moving vs blank control” value is given as “markedly shortened”. Further, the “Duration without Move within 6 min” value with Male ICR mice [1] (mice tail suspension, gavage 14 days, 30 mg/kg, n = 10, x ± s) turned out to be 180.6 ± 661.8 s. Moreover, the “effect on length of time that the mice stopped swimming vs blank control” value with Male ICR mice [2] (setting [3]) was “markedly shortened”. Moreover, the “Duration without Movement within the Last 4 min of the Whole 6 min” value in the assay with Male ICR mice [2] (mice, gavage once a day for 14 days, 30 mg/kg, n = 10, x ± s) was 173.6 ± 31.4 s.
